The EC50 is the concentration needed to bring the measured effect to its halfway point.

The results in this text go back to patent US20090137577A1, “HETEROCYCLIC COMPOUNDS” (Pfizer Inc., priority 2007, published 2009).

T1 sequence (Q14416 19-872, species assumed): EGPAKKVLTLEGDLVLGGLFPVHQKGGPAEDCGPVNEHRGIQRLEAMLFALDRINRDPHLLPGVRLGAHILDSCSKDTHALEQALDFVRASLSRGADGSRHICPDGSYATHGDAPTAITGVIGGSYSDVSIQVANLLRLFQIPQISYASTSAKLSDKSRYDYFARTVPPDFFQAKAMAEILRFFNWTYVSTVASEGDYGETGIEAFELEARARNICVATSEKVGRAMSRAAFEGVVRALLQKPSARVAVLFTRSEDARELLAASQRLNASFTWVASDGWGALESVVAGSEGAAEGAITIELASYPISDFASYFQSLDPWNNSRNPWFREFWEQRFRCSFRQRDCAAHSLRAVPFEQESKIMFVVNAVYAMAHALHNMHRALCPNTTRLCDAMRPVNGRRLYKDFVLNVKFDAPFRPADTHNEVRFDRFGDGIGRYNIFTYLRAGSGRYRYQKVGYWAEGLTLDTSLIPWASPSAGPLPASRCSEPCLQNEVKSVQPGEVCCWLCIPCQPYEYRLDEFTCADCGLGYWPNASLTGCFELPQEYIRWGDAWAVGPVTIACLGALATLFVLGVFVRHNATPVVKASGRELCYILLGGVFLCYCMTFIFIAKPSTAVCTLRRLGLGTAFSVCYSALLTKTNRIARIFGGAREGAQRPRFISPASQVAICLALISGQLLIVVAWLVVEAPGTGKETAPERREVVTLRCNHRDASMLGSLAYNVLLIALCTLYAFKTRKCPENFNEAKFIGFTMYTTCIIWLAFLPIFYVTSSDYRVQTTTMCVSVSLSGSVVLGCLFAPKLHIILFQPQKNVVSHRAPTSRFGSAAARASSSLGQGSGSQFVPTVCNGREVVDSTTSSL

The experiment has as its target T1, mGluR2 receptor (metabotropic glutamate receptor 2) (Homo sapiens, UniProt Q14416).
T1 construct: expressed in transfected cells
Kind of experiment: mGluR2 potentiator screen (FLIPR, EC10-EC20 glutamate challenge).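 Further: HEK cells stably expressing human mGluR2 with GL15 G protein, Fluo-4 calcium fluorescence read on FLIPR, compounds added before an EC10-EC20 glutamate challenge to detect potentiation.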 The class given is cell-based. As to conditions: geometric mean; read-out: mGluR 2 EC50 (geometric mean).
Turning to `C[C@@H]1CN(Cc2ccc(CN3CCc4cc(Cl)ccc43)cc2)C(=O)O1` [Example 300, (5R)-3-{4-[(5-Chloro-2,3-dihydro-1H-indol-1-yl)methyl]benzyl}-5-methyl-1,3-oxazolidin-2-one], the concentration giving a half-maximal response (EC50) worked out at 0.0945 µM.

For the compound `CC(Oc1ccc(CN2CCN(CC3CCCC3)CC2=O)cc1)C1CCCCC1` (stereo not drawn) [Example 202], the EC50 is 0.291 µM.

On to `CC1CN(Cc2ccc(OCC3(C)CC3)cc2)C(=O)O1` (stereo not drawn) [Example 95], for which the EC50 is 0.723 µM.

On to `CCN1CCN(Cc2ccc(OC(C)C3CCCCC3)cc2)C(=O)C1` (stereo not drawn) [Example 188, 1-[4-(1-cyclohexylethoxy)benzyl]-4-ethylpiperazin-2-one], for which the EC50 amounted to 0.725 µM.

As to `CC1CN(Cc2ccc(OC(C)Cc3ccccc3)cc2)C(=O)O1` (stereo not drawn) [Example 122], the half-maximal effective concentration (EC50) was found to be 0.0407 µM.

As for `COc1ccc(C(C)C)cc1-c1ccc(CN2C[C@@H](C)OC2=O)cc1` [Example 156], the half-maximal effective concentration (EC50) was less than 0.0162 µM.

On to `C[C@@H]1CN(Cc2ccc(OCc3ccc(C(F)(F)F)cc3F)c(F)c2)C(=O)O1` [Example 228, (5R)-3-(3-fluoro-4-{[2-fluoro-4-(trifluoromethyl)benzyl]oxy}benzyl)-5-methyl-1,3-oxazolidin-2-one], for which the half-maximal effective concentration (EC50) turned out to be 0.87 µM.

Turning to `CC1CN(Cc2ccc(OCc3ccc(F)c(F)c3)cc2)C(=O)O1` (stereo not drawn) [Example 137], the EC50 is 0.31 µM.

Consider `COc1ccc(C(C)C)cc1-c1ccc(CN2C[C@@H](C)OC2=O)cn1` [Example 282], for which the EC50 worked out at 1.47 µM.

In the case of `C[C@@H]1CN(Cc2ccc(O[C@H](C)c3ccccc3)cc2)C(=O)O1` [Example 67, (5R)-5-methyl-3-{4-[(1R)-1-phenylethoxy]benzyl}-1,3-oxazolidin-2-one], the half-maximal effective concentration (EC50) is 0.24 µM.

Turning to `Cc1cc(CN2C[C@@H](C)OC2=O)ccc1-c1ccc(F)cc1F` [Example 299, (5R)-3-[(2′,4′-Difluoro-2-methylbiphenyl-4-yl)methyl]-5-methyl-1,3-oxazolidin-2-one], the concentration for a half-maximal effect (EC50) is 0.167 µM.

Turning to `CC(C)Oc1ccc(-c2ccc(CN3C[C@@H](C)OC3=O)cc2)c(F)c1` [Example 281], the half-maximal effective concentration (EC50) turned out to be 0.00814 µM.

For `C[C@@H]1CN(Cc2ccc(-c3ccc(Cl)cc3OC(F)(F)F)cc2)C(=O)O1` [Example 316], the EC50 came to 0.0504 µM.

For `CC(Oc1ccc(CN2CCN(C3CC[C@@H](C)C3)CC2=O)cc1)C1CCCCC1` (stereo partly drawn) [Example 224], the concentration giving a half-maximal response (EC50) was found to be 1.1 µM.

With `CC(Oc1ccc(CN2C(=O)OC[C@@H]3CCCC[C@@H]32)cc1)c1ccccc1` (stereo partly drawn) [Example 35], the EC50 amounted to 0.884 µM.

As for `CC1CN(Cc2ccc(OCc3ccc(F)cc3Cl)cc2)C(=O)O1` (stereo not drawn) [Example 115], the concentration giving a half-maximal response (EC50) was 0.0718 µM.

On to `O=C1OC(c2cccnc2)CN1Cc1ccc(-c2ccc(OC(F)(F)F)cc2F)cc1` (stereo not drawn) [Example 303, 3-{[2′-Fluoro-4′-(trifluoromethoxy)biphenyl-4-yl]methyl}-5-pyridin-3-yl-1,3-oxazolidin-2-one], for which the EC50 is 0.0777 µM.

Turning to `COc1ccc(F)c(COc2ccc(CN3CC(C)OC3=O)cc2)c1` (stereo not drawn) [Example 151], the EC50 came to 0.0921 µM.

Take `CC(C)CCOc1ccc(CN2CC(C)OC2=O)cc1` (stereo not drawn) [Example 143]: the concentration for a half-maximal effect (EC50) stood at 0.0755 µM.

Consider `CCCC(C)CN1CCN(Cc2ccc(OC(C)C3CCCCC3)cc2)C(=O)C1` (stereo not drawn) [Example 214], for which the EC50 was determined as 0.712 µM.

As for `COc1cc(F)ccc1COc1ccc(CN2CC(C)OC2=O)cc1` (stereo not drawn) [Example 147], the EC50 was 0.118 µM.

As for `CC1CN(Cc2ccc(OCCc3ccccc3)cc2)C(=O)O1` (stereo not drawn) [Example 102], the concentration giving a half-maximal response (EC50) amounted to 0.282 µM.

Consider `Cc1cc(CN2C[C@@H](C)OC2=O)ccc1OCc1ccc(F)cc1C(F)(F)F` [Example 285, (5R)-3-(4-{[4-fluoro-2-(trifluoromethyl)benzyl]oxy}-3-methylbenzyl)-5-methyl-1,3-oxazolidin-2-one], for which the EC50 amounted to 0.217 µM.

As for `C[C@@H]1CN(Cc2ccc(-c3ccc(F)cc3F)c(F)c2)C(=O)O1` [Example 288], the EC50 stood at 0.0369 µM.

With `C[C@@H]1CN(Cc2ccc(COc3ccc(F)cc3F)cc2)C(=O)O1` [Example 305, (5R)-3-{4-[(2,4-Difluorophenoxy)methyl]benzyl}-5-methyl-1,3-oxazolidin-2-one], the EC50 was determined as 0.416 µM.

On to `C[C@@H]1CN(Cc2ccc(-c3ccc(C(F)(F)F)cc3F)c(F)c2)C(=O)O1` [Example 292], for which the EC50 came out at 0.056 µM.

Consider `CC(Oc1ccc(CN2C(=O)O[C@H](c3ccccc3)[C@@H]2C)cc1)c1ccccc1` (stereo partly drawn) [Example 50], for which the EC50 was 0.263 µM.

Regarding `COc1ccc(F)c(-c2ccc(CN3C[C@@H](C)OC3=O)cc2)c1` [Example 240], the EC50 came to 0.12 µM.

Regarding `CC(C)CCN1CCN(Cc2ccc(OC(C)C3CCCCC3)cc2)C(=O)C1` (stereo not drawn) [Example 220], the concentration giving a half-maximal response (EC50) turned out to be 0.801 µM.

In the case of `C[C@@H]1CN(Cc2ccc(-c3ccc(N4CCCC4)nc3)cc2)C(=O)O1` [Example 158], the concentration giving a half-maximal response (EC50) was 0.151 µM.

On to `CC1CN(Cc2ccc(OCC3CCC3)cc2)C(=O)O1` (stereo not drawn) [Example 14], for which the EC50 is 0.178 µM.

Take `CC1CN(Cc2ccc(OC3Cc4ccccc4C3)cc2)C(=O)O1` (stereo not drawn) [Example 126]: the 50% effective concentration (EC50) was found to be 0.0831 µM.

Take `CC1CN(Cc2ccc(OCCC3CC3)cc2)C(=O)O1` (stereo not drawn) [Example 93]: the concentration for a half-maximal effect (EC50) was 0.187 µM.

As for `C[C@@H]1CN(Cc2ccc(OCCCOc3ccc(F)cc3)cc2)C(=O)O1` [Example 206], the concentration giving a half-maximal response (EC50) was determined as 0.0299 µM.

`CC[C@H](C)COc1ccc(CN2CC(C)OC2=O)cc1` (stereo partly drawn) [Example 100]: the concentration giving a half-maximal response (EC50) was determined as 0.0559 µM.

Take `COc1ccc(Cl)cc1-c1ccc(CN2C[C@@H](C)OC2=O)cn1` [Example 266]: the concentration for a half-maximal effect (EC50) amounted to 0.562 µM.

On to `CCOc1ccccc1COc1ccc(CN2CC(C)OC2=O)cc1` (stereo not drawn) [Example 114], for which the EC50 turned out to be 0.0257 µM.

`CCOc1ccc(COc2ccc(CN3CC(C)OC3=O)cc2)cc1` (stereo not drawn) [Example 119]: the EC50 is 0.164 µM.

On to `Cc1cc(-c2ccc(CN3C[C@@H](C)OC3=O)cc2)ccc1F` [Example 160], for which the EC50 amounted to 0.0106 µM.

Take `COc1cc(F)ccc1-c1ccc(CN2C[C@@H](C)OC2=O)cc1` [Example 239]: the EC50 was less than 0.105 µM.

For `CC(C)CN1CCN(Cc2ccc(OC(C)C3CCCCC3)cc2)C(=O)C1` (stereo not drawn) [Example 200], the EC50 was determined as 0.191 µM.

Regarding `CC1CN(Cc2ccc(OCc3ccccc3F)cc2)C(=O)O1` (stereo not drawn) [Example 112], the EC50 is 0.138 µM.

In the case of `C[C@@H]1CN(Cc2ccc(-c3ccc(OC(F)(F)F)cc3)nc2)C(=O)O1` [Example 255, (5R)-5-methyl-3-({6-[4-(trifluoromethoxy)phenyl]pyridin-3-yl}methyl)-1,3-oxazolidin-2-one], the EC50 was 0.463 µM.

As for `CC(C)N1Cc2ccc(-c3ccc(CN4C[C@@H](C)OC4=O)cc3)cc2C1` [Example 174], the half-maximal effective concentration (EC50) came to 1.62 µM.

Consider `CN(C)CC1CN(Cc2ccc(-c3ccc(F)cc3F)cc2)C(=O)O1` (stereo not drawn) [Example 307, 3-[(2′,4′-difluorobiphenyl-4-yl)methyl]-5-[(dimethylamino)methyl]-1,3-oxazolidin-2-one], for which the EC50 amounted to 1.36 µM.

For the compound `C[C@H]1CN(Cc2ccc(-c3ccc(C(F)(F)F)cc3)cc2)C(=O)O1` [Example 63, (5S)-5-methyl-3-{[4′-(trifluoromethyl)biphenyl-4-yl]methyl}-1,3-oxazolidin-2-one], the EC50 worked out at 0.141 µM.

On to `Cc1ccc(Cl)cc1-c1ccc(CN2C[C@@H](C)OC2=O)cc1` [Example 233], for which the EC50 is 0.0456 µM.

On to `CC(C)Oc1ccc(-c2ccc(CN3C[C@@H](C)OC3=O)cn2)c(Cl)c1` [Example 278], for which the half-maximal effective concentration (EC50) stood at 0.164 µM.
